Reference: patent US6191282A, “Substituted 5-membered ring heterocycles comprising a bicyclic or tricyclic group their preparation and their use” (Hoechst Marion Roussel, priority 1993, dated 2001)
Read-outs that look alike come from different tables or passages of the source.

Tested on: gel-filtered human thrombocytes
Experiment: Inhibition of the aggregation of gel-filtered human thrombocytes following stimulation with ADP or thrombin (Test method 1)
Format: cell-based
Conditions: Homo sapiens, 1 mg/ml fibrinogen, 37° C., GFP from 2-4 donors
Experimental: As a functional test, measurement is made of the inhibition of the aggregation of gel-filtered human thrombocytes, following stimulation with ADP or thrombin, by the compounds according to the invention.
For this purpose, human thrombocytes were isolated from platelet-rich plasma (PRP) by gel filtration on Sepharose 2 B. The resulting suspension of gel-filtered platelets (GFP), which contained 3×10^8 platelets/ml, was activated in the presence of 1 mg/ml of fibrinogen either with 10 μM ADP or with 0.1 U/ml thrombin, and stirred in an aggregometer (PAP 4, Biodata, Hatboro, Penna., USA) at 37° C. and at 1000 revolutions per minute. The maximum increase in the translucency is taken as a measure of the aggregation. The test substances were added to the GFP at 37° C. and 2 min before activating with ADP or thrombin.

[1] = ADP-stimulated (10 μM ADP), read-out: IC50, inhibition of thrombocyte aggregation, ADP-stimulated
[2] = Thrombin-stimulated (0.1 U/ml thrombin), read-out: IC50, inhibition of thrombocyte aggregation, Thrombin-stimulated

SMILES	IC50 [1]	IC50 [2]
CCCCCC(=O)NC(CNC(=O)CN1C(=O)NC(C)(c2ccc(C(=N)N)cc2)C1=O)C(=O)O (racemic) [Example 30, (R,S)-3-(((R,S)-4-(4-(Aminoiminomethyl)phenyl)-4-methyl-2,5-dioxoimidazolidin-1-yl)acetylamino)-2-pentylcarbonylaminopropionic acid]	500 nM	400 nM
CCCCCC(=O)NC(CNC(=O)CN1C(=O)N(C)C(C)(c2ccc(C(=N)N)cc2)C1=O)C(=O)O (racemic) [Example 31, (R,S)-3-(((R,S)-4-(4-(Aminoiminomethyl)phenyl)-3,4-dimethyl-2,5-dioxoimidazolidin-1-yl)acetylamino)-2-pentylcarbonylaminopropionic acid]	3000 nM	600 nM
CCCCS(=O)(=O)NC(CNC(=O)CN1C(=O)NC(C)(c2ccc(C(=N)N)cc2)C1=O)C(=O)O (racemic) [Example 32, (R,S)-3-(((R,S)-4-(4-(Aminoiminomethyl)phenyl)-4-methyl-2,5-dioxoimidazolidin-1-yl)acetylamino)-2-butylsulphonylaminopropionic acid]	200 nM	150 nM
CCCCS(=O)(=O)NC(CNC(=O)CN1C(=O)N(C)C(C)(c2ccc(C(=N)N)cc2)C1=O)C(=O)O (racemic) [Example 33, (R,S)-3-(((R,S)-4-(4-(Aminoiminomethyl)phenyl)-3,4-dimethyl-2,5-dioxoimidazolidin-1-yl)acetylamino)-2-butylsulphonylaminopropionic acid]	500 nM	200 nM
CC1(c2ccc(C(=N)N)cc2)NC(=O)N(CC(=O)NC(CS(=O)(=O)NC(=O)Nc2ccccc2)C(=O)OCc2ccccc2)C1=O (racemic) [Example 34, 2-((R,S)-4-(4-Aminoiminomethyl)phenyl)-4-methyl-2,5-dioxoimidazolidin-1-yl)-N-((R,S)-1-benzyloxycarbonyl-2-(3-phenylureidosulphonyl)ethyl)acetamide]	2500 nM	1500 nM
COc1ccc(C(CC(=O)O)NC(=O)CN2C(=O)NC(C)(c3ccc(C(=N)N)cc3)C2=O)cc1O (racemic) [Example 35, (R,S)-3-(((R,S)-4-(4-(Aminoiminomethyl)phenyl)-4-methyl-2,5-dioxoimidazolidin-1-yl)acetylamino)-3-(3-hydroxy-4-methoxyphenyl)propionic acid]	100 nM	300 nM
COc1cc(C(CC(=O)O)NC(=O)CN2C(=O)NC(C)(c3ccc(C(=N)N)cc3)C2=O)ccc1O (racemic) [Example 36, (R,S)-3-(((R,S)-4-(4-(Aminoiminomethyl)phenyl)-4-methyl-2,5-dioxoimidazolidin-1-yl)acetylamino)-3-(4-hydroxy-3-methoxyphenyl)propionic acid]	200 nM	150 nM
CCOc1ccc(C(CC(=O)O)NC(=O)CN2C(=O)NC(C)(c3ccc(C(=N)N)cc3)C2=O)cc1 (racemic) [Example 37, (R,S)-3-(((R,S)-4-(4-(Aminoiminomethyl)phenyl)-4-methyl-2,5-dioxoimidazolidin-1-yl)acetylamino)-3-(4-ethoxyphenyl)propionic acid]	100 nM	200 nM
CC1(c2ccc(C(=N)N)cc2)NC(=O)N(CC(=O)NC(CC(=O)O)c2cccc3ccccc23)C1=O (racemic) [Example 38, (R,S)-3-(((R,S)-4-(4-(Aminoiminomethyl)phenyl)-4-methyl-2,5-dioxoimidazolidin-1-yl)acetylamino)-3-(1-naphthyl)propionic acid]	300 nM	350 nM
CC1(c2ccc(C(=N)N)cc2)NC(=O)N(CC(=O)NC(CC(=O)O)c2cccc(OCc3ccccc3)c2)C1=O (racemic) [Example 41, (R,S)-3-(((R,S)-4-(4-(Aminoiminomethyl)phenyl)-4-methyl-2,5-dioxoimidazolidin-1-yl)acetylamino)-3-(3-benzyloxyphenyl)propionic acid]	100 nM	150 nM
